# Measured values: patent publication US20070264355A1, “BINARY COMPOSITIONS AND METHODS FOR STERILIZATION” (Binary, LLC, priority 2005, published 2007)
# Values joined by “and” are separate entries in the source; they are usually repeats but may differ in a detail not shown here. Identical values can stand only once.
# Tested on: Staphylococcus aureus (ATCC 6538)
# Assay: Microbicidal activity against Staphylococcus aureus (suspension test, surviving CFU)
# Type: cell-based
# Experimental: Bacterial suspensions, specifically Staphylococcus aureus (ATCC 6538) in this example, were prepared by the shake flask method to achieve late log to early stationary phase growth. Bacteria were grown 24 hours in trypticase soy broth (TSB) at 35° C. The cultures were centrifuged at 4,000 rpm for 10 minutes and the supernatants removed. The pellet was collected and washed twice with sterile 0.9% normal saline. The washed microorganisms were suspended and diluted with normal saline to a 3 McFarland standard, i.e., approximately 10^9 bacteria colony forming units (CFU) per ml. Actual colony counts are confirmed by serial dilutions (10^−1 to 10^−5 or 10^−6) plated on trypticase soy agar (TSA) and incubated overnight at 35° C. One hundred microliters of organisms from a stock of 10^7 CFU/ml were used to obtain an approximate final working target inoculum of 10^6 CFU. The microbicidal test is conducted in a vial containing 1.4 ml of final reaction mixture after neutralization.
# Each solution was used alone for the individual controls. Organism suspensions were used to achieve a final target concentration of 2-3×10^6 CFU per ml. For the binary system treatments, sodium hypochlorite solution and hydrogen peroxide solution, non-acidified or acidified, were sequentially added to the microorganisms. Acidified hydrogen peroxide solution was obtained by the addition of 1.0% v/v of 0.001 N hydrochloride solution. After each addition, the resulting mixture was allowed to remain in contact with the organisms for a set amount of time at room temperature (about 22° C.), as listed in the Tables 1 and 2. At the end of the treatment time, the mixtures were neutralized with 200 to 500 microliters of thiosulfate solution (2.4%) to quench the activity of sodium hypochlorite and then treated with 100 to 200 microliters of a 1% catalase solution, containing a minimum of 100 units/ul, to quench the hydrogen peroxide activity. If needed, an appropriate volume of sterile saline was added to bring the final volume of reaction mixture to 1.4 ml after neutralization. Serial dilution plate counts were performed from the contents of each vial in sterile saline and inoculated onto TSA for quantitative culture. Plates were then incubated at 37° C. and counts taken at 24 hours.
# After an additional 30 minutes, the binary system mixture was then neutralized using 2.4% thiosulfate followed by 1% catalase as described in the Methods Section.
# [1] = NaOCl 0.02 mM 15 min, then saline 30 min, inoculum 2530000 CFU
# [2] = NaOCl 0.02 mM 15 min, inoculum 2500000 CFU
# [3] = NaOCl 0.02 mM 15 min, inoculum 2530000 CFU
# [4] = NaOCl 0.03 mM 15 min, then saline 30 min, inoculum 2530000 CFU
# [5] = NaOCl 0.03 mM 15 min, inoculum 2500000 CFU
# [6] = NaOCl 0.03 mM 15 min, inoculum 2530000 CFU
# [7] = NaOCl 0.04 mM 15 min, then saline 30 min, inoculum 2530000 CFU
# [8] = NaOCl 0.04 mM 15 min, inoculum 2500000 CFU
# [9] = NaOCl 0.04 mM 15 min, inoculum 2530000 CFU
# [10] = NaOCl 0.05 mM 15 min, then saline 30 min, inoculum 2530000 CFU
# [11] = NaOCl 0.05 mM 15 min, inoculum 2530000 CFU
# [12] = NaOCl 0.06 mM 15 min, then saline 30 min, inoculum 2530000 CFU
# [13] = NaOCl 0.06 mM 15 min, inoculum 2530000 CFU
# [14] = NaOCl 0.07 mM 5 min, inoculum 1600000 CFU
# [15] = NaOCl 0.07 mM 15 min, then saline 30 min, inoculum 2530000 CFU
# [16] = NaOCl 0.07 mM 15 min, inoculum 1600000 CFU
# [17] = NaOCl 0.07 mM 15 min, inoculum 2530000 CFU
# [18] = NaOCl 0.07 mM 30 min, inoculum 1600000 CFU
# [19] = NaOCl 0.71 mM 5 min, inoculum 1600000 CFU
# [20] = NaOCl 0.71 mM 15 min, inoculum 1600000 CFU
# [21] = NaOCl 0.71 mM 30 min, inoculum 1600000 CFU
# [22] = NaOCl 7.05 mM 5 min, inoculum 1600000 CFU
# [23] = NaOCl 7.05 mM 15 min, inoculum 1600000 CFU
# [24] = NaOCl 7.05 mM 30 min, inoculum 1600000 CFU
# [25] = NaOCl 70.53 mM 5 min, inoculum 1600000 CFU
# [26] = NaOCl 70.53 mM 15 min, inoculum 1600000 CFU
# [27] = NaOCl 70.53 mM 30 min, inoculum 1600000 CFU
# [28] = NaOCl 705.27 mM 5 min, inoculum 1600000 CFU
# [29] = NaOCl 705.27 mM 15 min, inoculum 1600000 CFU
# [30] = NaOCl 705.27 mM 30 min, inoculum 1600000 CFU
structure (smiles),measurement,setting,value
"[Na+].[O-]Cl [NaOCl, sodium hypochlorite]",Log 10 (CFU + 1) Survivors,[1],3.0
same,Log Reduction,[1],3.4
same,Total Viability (CFU),[1],1092 CFU
same,Log 10 (CFU + 1) Survivors,[2],6.3
same,Log Reduction,[2],0.1 and 0.12
same,Total Viability (CFU),[2],1890000 CFU
same,Log 10 (CFU + 1) Survivors,[3],3.1
same,Log Reduction,[3],3.3 and 3.29
same,Total Viability (CFU),[3],1288 CFU
same,Log 10 (CFU + 1) Survivors,[4],2.4
same,Log Reduction,[4],4.0
same,Total Viability (CFU),[4],260 CFU
same,Log 10 (CFU + 1) Survivors,[5],4.9
same,Log Reduction,[5],1.5 and 1.53
same,Total Viability (CFU),[5],74200 CFU
same,Log 10 (CFU + 1) Survivors,[6],2.9
same,Log Reduction,[6],3.5 and 3.51
same,Total Viability (CFU),[6],784 CFU
same,Log 10 (CFU + 1) Survivors,[7],1.3
same,Log Reduction,[7],5.1
same,Total Viability (CFU),[7],18 CFU
same,Log 10 (CFU + 1) Survivors,[8],2.8
same,Log Reduction,[8],3.6 and 3.61
same,Total Viability (CFU),[8],616 CFU
same,Log 10 (CFU + 1) Survivors,[9],2.2
same,Log Reduction,[9],4.2 and 4.18
same,Total Viability (CFU),[9],167 CFU
same,Log 10 (CFU + 1) Survivors,[10],1.1
same,Log Reduction,[10],5.3
same,Total Viability (CFU),[10],13 CFU
same,Log 10 (CFU + 1) Survivors,[11],1.3
same,Log Reduction,[11],5.1 and 5.15
same,Total Viability (CFU),[11],17 CFU
same,Log 10 (CFU + 1) Survivors,[12],0.9
same,Log Reduction,[12],5.5
same,Total Viability (CFU),[12],7 CFU
same,Log 10 (CFU + 1) Survivors,[13],0.0
same,Log Reduction,[13],6.4
same,Total Viability (CFU),[13],0 CFU
same,Log 10 (CFU + 1) Survivors,[14],0.7
same,Log Reduction,[14],5.5
same,Total Viability (CFU),[14],4 CFU
same,Total Viability (CFU),"NaOCl 0.07 mM 5 min, inoculum 1600000 CFU, listed as sodium hypochlorite",four
same,Log 10 (CFU + 1) Survivors,[15],0.0
same,Log Reduction,[15],6.4
same,Total Viability (CFU),[15],0 CFU
same,Log 10 (CFU + 1) Survivors,[16],0.9
same,Log Reduction,[16],5.3
same,Total Viability (CFU),[16],7 CFU
same,Total Viability (CFU),"NaOCl 0.07 mM 15 min, inoculum 1600000 CFU, listed as sodium hypochlorite",seven
same,Log 10 (CFU + 1) Survivors,[17],0.0
same,Log Reduction,[17],6.4
same,Total Viability (CFU),[17],0 CFU
same,Log 10 (CFU + 1) Survivors,[18],0.0
same,Log Reduction,[18],6.2
same,Total Viability (CFU),[18],0 CFU
same,Log 10 (CFU + 1) Survivors,[19],0.0
same,Log Reduction,[19],6.2
same,Total Viability (CFU),[19],0 CFU
same,Log 10 (CFU + 1) Survivors,[20],0.0
same,Log Reduction,[20],6.2
same,Total Viability (CFU),[20],0 CFU
same,Log 10 (CFU + 1) Survivors,[21],0.0
same,Log Reduction,[21],6.2
same,Total Viability (CFU),[21],0 CFU
same,Log 10 (CFU + 1) Survivors,[22],0.0
same,Log Reduction,[22],6.2
same,Total Viability (CFU),[22],0 CFU
same,Log 10 (CFU + 1) Survivors,[23],0.0
same,Log Reduction,[23],6.2
same,Total Viability (CFU),[23],0 CFU
same,Log 10 (CFU + 1) Survivors,[24],0.0
same,Log Reduction,[24],6.2
same,Total Viability (CFU),[24],0 CFU
same,Log 10 (CFU + 1) Survivors,[25],0.0
same,Log Reduction,[25],6.2
same,Total Viability (CFU),[25],0 CFU
same,Log 10 (CFU + 1) Survivors,[26],0.0
same,Log Reduction,[26],6.2
same,Total Viability (CFU),[26],0 CFU
same,Log 10 (CFU + 1) Survivors,[27],0.0
same,Log Reduction,[27],6.2
same,Total Viability (CFU),[27],0 CFU
same,Log 10 (CFU + 1) Survivors,[28],0.0
same,Log Reduction,[28],6.2
same,Total Viability (CFU),[28],0 CFU
same,Log 10 (CFU + 1) Survivors,[29],0.0
same,Log Reduction,[29],6.2
same,Total Viability (CFU),[29],0 CFU
same,Log 10 (CFU + 1) Survivors,[30],0.0
same,Log Reduction,[30],6.2
same,Total Viability (CFU),[30],0 CFU
